For this experiment, the target named is T1, alpha-glucosidase enzyme from Saccharomyces cerevisiae (EC 3.2.1.20) (Saccharomyces cerevisiae, UniProt P53341).
T1 construct: purchased Sigma-Aldrich
The experiment is described as follows: biochemical. It counts as biochemical. The protocol: Briefly, the enzyme from Saccharomyces cerevisiae (EC 3.2.1.20) and the pNPG substrate were dissolved in 0.1 M phosphate buffer (pH 7), which was enriched by bovine serum albumin and sodium azide. Standards and samples were suspended in 20% (v/v) of DMSO in a water solution. In a 96-well plate, 50 µl of PBS, standards, samples and enzyme solutions were mixed and incubated for 2 min at 37 °C. At last, 50 µl of 4 mM pNPG was added and incubated for 5 min before the kinetic parameter measurement, as described earlier.
The velocity was examined by a linear relationship equation between absorbance and time, Equation (1).
The percent inhibition was determined for the highest velocity as:% Inhibition = (V control − V sample)/(V control) × 100(2)
The IC50 value was calculated by using a calibration curve equation between samples at five different concentrations and inhibition percentages.

Where [1] appears, read: isolated compounds (Table 2), read-out: IC50 (converted).

This is an account of results in PMC8512368, “Alpha-Glucosidase Inhibitory Assay-Screened Isolation and Molecular Docking Model from Bauhinia pulla Active Compounds” (Molecules, 2021).

Molecules are shown by their SMILES. Where two headings read alike, the source gives them in different places.

T1 sequence (P53341 whole entry): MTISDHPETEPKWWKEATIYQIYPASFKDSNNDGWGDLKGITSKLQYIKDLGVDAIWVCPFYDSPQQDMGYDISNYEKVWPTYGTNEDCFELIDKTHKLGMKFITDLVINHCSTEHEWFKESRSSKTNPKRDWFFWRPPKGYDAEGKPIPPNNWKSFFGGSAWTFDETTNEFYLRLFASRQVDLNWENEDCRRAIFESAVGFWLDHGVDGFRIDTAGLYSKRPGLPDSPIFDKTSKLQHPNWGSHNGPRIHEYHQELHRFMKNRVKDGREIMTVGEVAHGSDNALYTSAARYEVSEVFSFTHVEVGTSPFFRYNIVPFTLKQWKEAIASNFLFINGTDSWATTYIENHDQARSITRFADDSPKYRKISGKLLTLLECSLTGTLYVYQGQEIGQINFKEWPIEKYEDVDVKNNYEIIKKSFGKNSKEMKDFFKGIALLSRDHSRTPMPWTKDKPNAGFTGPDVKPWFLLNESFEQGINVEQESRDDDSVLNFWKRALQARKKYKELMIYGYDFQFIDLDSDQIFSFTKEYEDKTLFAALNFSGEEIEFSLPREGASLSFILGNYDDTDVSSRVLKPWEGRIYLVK

In the case of `COc1ccc(/C=C/C(=O)c2ccc(O)cc2O)cc1O` [3,2’ ,4’-trihydroxy-4-methoxychalcone, 3,2’,4’-trihydroxy-4-methoxychalcone], the IC50 under setting [1] was 4450 µM.
For the molecule `COc1ccc(/C=C/C(=O)c2ccc(O)cc2O)cc1` [4-methyl ether isoliquiritigenin], under setting [1], the IC50 was 814 µM.
Regarding `O=c1cc(-c2ccc(O)c(O)c2)oc2cc(O)ccc12` [5-deoxyluteolin], under setting [1], the IC50 is 2130 µM. Also, the “IC50 fold higher compared to luteolin” value (ratio of IC50 values) worked out at 3.5 fold.
Consider `O=c1cc(-c2ccc(O)c(O)c2)oc2cc(O)cc(O)c12` [Luteolin, luteolin], for which, under setting [1], the IC50 was 573 µM.
On to `C[C@@H]1O[C@@H](Oc2c(-c3ccc(O)c(O)c3)oc3cc(O)cc(O)c3c2=O)[C@H](O)[C@H](O)[C@H]1O` [Quercitrin, quercitrin], for which the IC50 is 111 µM. Besides, where the note is “ratio of IC50 values”, the “inhibitory activity drop compared with quercetin (sugar moiety added)” value was “roughly 10 fold”.
